Experimental findings from patent publication US9902703B2, “Somatostatin modulators and uses thereof” (Crinetics Pharmaceuticals, Inc., priority 2015, dated 2018) are described below.

For the test, the target named is T1, human somatostatin receptor subtype 2 (Homo sapiens, UniProt P30874).
T1 construct: expressed in transfected cells; host or cells: CHO (Chinese hamster ovary) cells, G-418 selected
T1 sequence (P30874 whole entry): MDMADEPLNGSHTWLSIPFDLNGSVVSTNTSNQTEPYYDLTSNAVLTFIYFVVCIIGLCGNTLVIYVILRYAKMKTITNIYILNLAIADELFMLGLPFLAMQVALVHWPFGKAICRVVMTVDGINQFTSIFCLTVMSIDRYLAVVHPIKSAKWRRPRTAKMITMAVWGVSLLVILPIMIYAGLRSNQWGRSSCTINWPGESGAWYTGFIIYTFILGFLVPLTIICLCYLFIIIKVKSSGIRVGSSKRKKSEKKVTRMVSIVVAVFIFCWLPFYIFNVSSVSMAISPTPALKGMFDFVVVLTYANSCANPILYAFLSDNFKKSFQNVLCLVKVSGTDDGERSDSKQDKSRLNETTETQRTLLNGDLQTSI
The experiment in a line: cAMP assay (functional assay for SSTR2 agonists). The format is cell-based. To be noted: CHO cells expressing human SSTR2; intracellular cAMP with forskolin, HTRF; read-out: SSTR2a EC50. From the text: Functional Assay for SSTR2 Agonists
General overview: All five SSTR subtypes are Gi coupled G-protein coupled receptors (GPCRs) that lead to decreases in intracellular cyclic AMP (cAMP) when activated by an agonist. Therefore, measurement of intracellular cAMP levels can be used to assess whether compounds of the invention are agonists of SSTR subtypes (John Kelly, Troy Stevens, W. Joseph Thompson, and Roland Seifert, Current Protocols in Pharmacology, 2005, 2.2.1-2.2). One example of an intracellular cAMP assay is described below.
One day prior to the assay, 40,000 Chinese hamster ovary (CHO) cells expressing the human somatostatin receptor subtype 2 are plated in each well of a 96-well tissue culture plate in DM-MEM growth media (Gibco) with the following additives: 10% fetal bovine serum (Gibco), 100 U/mL penicillin (Gibco), 100 ug/mL streptomycin (Gibco), 10 mM HEPES (Gibco), 1.2 mM sodium hydroxide, 0.5 mg/mL G-418 (Gibco)). The cells are cultured overnight at 37° C., 5% CO2 and 95% humidity. On the day of the assay, the media is aspirated and the cells are washed with 1× Dulbecco's phosphate buffered saline (Gibco). Next, 5 μL of assay buffer (1× Earle's Balanced Salt Solution (Gibco), 5 mM MgCl2, 10 mM HEPES, 0.1% bovine serum albumin, 0.2 mM 3-Isobutyl-1-methylxanthine (IBMX, Biomol Research Labs)) and forskolin is added. Various dilutions of the compounds of the invention are prepared in assay buffer and 5 μL of the dilutions are added to the cultured cells and incubated for 15 minutes at 37° C. […] 10 μL of lysis buffer (HRTF cAMP kit, Cisbio) containing cAMP detection and visualization antibodies are added and the assay is allowed incubate for 1-24 hours at room temperature. The intracellular cAMP concentrations are then measured using a commercially available detection kit (for example, the cAMP HTRF kit, Cisbio). The measured intracellular cAMP concentrations are plotted vs. the concentration of the compounds of the invention and the EC50 of the compounds are calculated using standard methods.
For the compound `Cc1cc(Cl)cc(N2C=Nc3cc(C)c(-c4cccc(C#N)c4)cc3C2C(=O)N(C)C[C@@H]2CCCN2)c1` (stereo partly drawn) [Compound 1-33, 3-(3-chloro-5-methylphenyl)-6-(3-cyanophenyl)-N,7-dimethyl-N-[(2S)-pyrrolidin-2-ylmethyl]-3,4-dihydroquinazoline-4-carboxamide], the EC50 is < 100 nM.

For the compound `Cc1cc(Cl)cc(N2C=Nc3cc(C)c(-c4cc(F)cc(C(F)(F)F)c4)cc3C2C(=O)N(C)C[C@@H]2CCCN2)c1` (stereo partly drawn) [Compound 2-20, 3-(3-chloro-5-methylphenyl)-6-[3-fluoro-5-(trifluoromethyl)phenyl]-N,7-dimethyl-N-[(2S)-pyrrolidin-2-ylmethyl]-3,4-dihydroquinazoline-4-carboxamide], the 50% effective concentration (EC50) was < 100 nM.

As to `Cc1cc(Cl)cc(N2C=Nc3cc(C)c(-c4cccc(C(N)=O)c4)cc3C2C(=O)N(C)C[C@@H]2CCCCN2)c1` (stereo partly drawn) [Compound 1-24, 6-(3-carbamoylphenyl)-3-(3-chloro-5-methylphenyl)-N,7-dimethyl-N-[(2S)-piperidin-2-ylmethyl]-3,4-dihydroquinazoline-4-carboxamide], the EC50 is < 100 nM.

Turning to `Cc1cc(Cl)cc(N2C=Nc3cc(C)c(-c4ccc(F)cc4C)cc3C2C(=O)N(C)C[C@@H]2CCCN2)c1` (stereo partly drawn) [Compound 2-8, 3-(3-chloro-5-methylphenyl)-6-(4-fluoro-2-methylphenyl)-N,7-dimethyl-N-[(2S)-pyrrolidin-2-ylmethyl]-3,4-dihydroquinazoline-4-carboxamide], the EC50 is < 100 nM.

As to `CC1=Nc2ccc(-c3cc(O)ccc3Cl)cc2C(C(=O)N(C)C[C@@H]2CCCN2)N1c1cc(C)cc(Cl)c1` (stereo partly drawn) [Compound 1-27, 6-(2-chloro-5-hydroxyphenyl)-3-(3-chloro-5-methylphenyl)-N,2-dimethyl-N-[(2S)-pyrrolidin-2-ylmethyl]-3,4-dihydroquinazoline-4-carboxamide], the EC50 was < 100 nM.

In the case of `Cc1cc(Cl)cc(N2C=Nc3cc(C)c(-c4cccc(O)c4)cc3C2C(=O)N(C)C[C@H]2CCCN2)c1` (stereo partly drawn) [Compound 1-18, 3-(3-chloro-5-methylphenyl)-6-(3-hydroxyphenyl)-N,7-dimethyl-N-[(2R)-pyrrolidin-2-ylmethyl]-3,4-dihydroquinazoline-4-carboxamide], the EC50 was < 100 nM.

Take `Cc1cc(F)cc(N2C=Nc3cc(C)c(-c4cc(O)ccc4Cl)cc3C2C(=O)N(C)C[C@@H]2CCCN2)c1` (stereo partly drawn) [Compound 1-26, 6-(2-chloro-5-hydroxyphenyl)-3-(3-fluoro-5-methylphenyl)-N,7-dimethyl-N-[(2S)-pyrrolidin-2-ylmethyl]-3,4-dihydroquinazoline-4-carboxamide]: the EC50 was < 100 nM.

With `Cc1cc(Cl)cc(N2C=Nc3cc(C)c(-c4cc(F)cc(C(N)=O)c4)cc3C2C(=O)N(C)C[C@@H]2CCCN2)c1` (stereo partly drawn) [Compound 2-9, 6-(3-carbamoyl-5-fluorophenyl)-3-(3-chloro-5-methylphenyl)-N,7-dimethyl-N-[(2S)-pyrrolidin-2-ylmethyl]-3,4-dihydroquinazoline-4-carboxamide], the EC50 was < 100 nM.

In the case of `Cc1cc(Cl)cc(N2C=Nc3cc(C)c(-c4cc(F)ccc4O)cc3C2C(=O)N(C)C[C@@H]2CCCN2)c1` (single isomer, unassigned) [Compound 3-2], the concentration giving a half-maximal response (EC50) was < 100 nM.

With `Cc1cc(Cl)cc(N2C=Nc3cc(C)c(-c4cccnc4)cc3C2C(=O)N(C)C[C@@H]2CCCN2)c1` (stereo partly drawn) [Compound 2-2, 3-(3-chloro-5-methylphenyl)-N,7-dimethyl-6-(pyridin-3-yl)-N-[(2S)-pyrrolidin-2-ylmethyl]-3,4-dihydroquinazoline-4-carboxamide], the EC50 lay within 100 to 1000 nM.

Consider `Cc1cc(Cl)cc(N2C=Nc3cc(Cl)c(-c4cccc(O)c4)cc3C2C(=O)N(C)C[C@@H]2CCCN2)c1` (stereo partly drawn) [Compound 1-72, 7-chloro-3-(3-chloro-5-methylphenyl)-6-(3-hydroxyphenyl)-N-methyl-N-((S)-pyrrolidin-2-ylmethyl)-3,4-dihydroquinazoline-4-carboxamide], for which the concentration for a half-maximal effect (EC50) was < 100 nM.

On to `Cc1cc(Cl)cc(N2C=Nc3cc(C)c(-c4cccc(F)c4C)cc3C2C(=O)N(C)C[C@@H]2CCCN2)c1` (stereo partly drawn) [Compound 2-7, 3-(3-chloro-5-methylphenyl)-6-(3-fluoro-2-methylphenyl)-N,7-dimethyl-N-[(2S)-pyrrolidin-2-ylmethyl]-3,4-dihydroquinazoline-4-carboxamide], for which the concentration giving a half-maximal response (EC50) was < 100 nM.

Regarding `Cc1cc(C)cc(N2C=Nc3ccc(-c4cccc(O)c4)cc3C2C(=O)N(C)C[C@H](C)N)c1` (stereo partly drawn) [Compound 1-1, N-[(2S)-2-aminopropyl]-3-(3,5-dimethylphenyl)-6-(3-hydroxyphenyl)-N-methyl-3,4-dihydroquinazoline-4-carboxamide], the concentration for a half-maximal effect (EC50) lay in the range of 100 to 1000 nM.

`Cc1cc(Cl)cc(N2C=Nc3cc(C)c(-c4cc(F)ccc4C)cc3C2C(=O)N(C)C[C@@H]2CCCN2)c1` (stereo partly drawn) [Compound 2-13, 3-(3-chloro-5-methylphenyl)-6-(5-fluoro-2-methylphenyl)-N,7-dimethyl-N-[(2S)-pyrrolidin-2-ylmethyl]-3,4-dihydroquinazoline-4-carboxamide]: the concentration giving a half-maximal response (EC50) is < 100 nM.

On to `Cc1cc(Cl)cc(N2C=Nc3cc(C)c(-c4cccc(C(N)=O)n4)cc3C2C(=O)N(C)C[C@@H]2CCCN2)c1` (stereo partly drawn) [Compound 2-11, 6-(6-carbamoylpyridin-2-yl)-3-(3-chloro-5-methylphenyl)-N,7-dimethyl-N-[(2S)-pyrrolidin-2-ylmethyl]-3,4-dihydroquinazoline-4-carboxamide], for which the EC50 is < 100 nM.

With `Cc1cc(Cl)cc(N2C=Nc3cc(C)c(-c4cccc(C#N)c4C)cc3C2C(=O)N(C)C[C@@H]2CCCN2)c1` (stereo partly drawn) [Compound 1-44, 3-(3-chloro-5-methylphenyl)-6-(3-cyano-2-methylphenyl)-N,7-dimethyl-N-[(2S)-pyrrolidin-2-ylmethyl]-3,4-dihydroquinazoline-4-carboxamide], the EC50 is < 100 nM.

For the compound `Cc1cc(Cl)cc(N2C=Nc3ccc(-c4cc(O)cc(F)c4)cc3C2C(=O)N(C)C[C@@H]2CCCN2)c1` (stereo partly drawn) [Compound 1-50, 3-(3-chloro-5-methylphenyl)-6-(3-fluoro-5-hydroxyphenyl)-N-methyl-N-[(2S)-pyrrolidin-2-ylmethyl]-3,4-dihydroquinazoline-4-carboxamide], the concentration for a half-maximal effect (EC50) was < 100 nM.

Consider `Cc1cc(Cl)cc(N2C=Nc3cc(C)c(-c4cc(O)ccc4Cl)cc3C2C(=O)N(C)C[C@@H]2CCCN2)c1` (stereo partly drawn) [Compound 1-20, 6-(2-chloro-5-hydroxyphenyl)-3-(3-chloro-5-methylphenyl)-N,7-dimethyl-N-[(2S)-pyrrolidin-2-ylmethyl]-3,4-dihydroquinazoline-4-carboxamide], for which the concentration for a half-maximal effect (EC50) is < 100 nM.

For `COc1ccc(C)c(-c2cc3c(cc2C)N=CN(c2cc(C)cc(Cl)c2)C3C(=O)N(C)C[C@@H]2CCCN2)c1` (stereo partly drawn) [Compound 2-4, 3-(3-chloro-5-methylphenyl)-6-(5-methoxy-2-methylphenyl)-N,7-dimethyl-N-[(2S)-pyrrolidin-2-ylmethyl]-3,4-dihydroquinazoline-4-carboxamide], the EC50 was < 100 nM.

In the case of `COc1cc(F)cc(N2C=Nc3cc(C)c(-c4cc(O)ccc4F)cc3C2C(=O)N(C)C[C@@H]2CCCN2)c1` (stereo partly drawn) [Compound 1-22, 6-(2-fluoro-5-hydroxyphenyl)-3-(3-fluoro-5-methoxyphenyl)-N,7-dimethyl-N-[(2S)-pyrrolidin-2-ylmethyl]-3,4-dihydroquinazoline-4-carboxamide], the 50% effective concentration (EC50) is < 100 nM.

The term EC50 denotes the concentration that produces a half-maximal response.
